Here are results for 24 compounds from patent US11111242B2, “Pyrrolo[2,3-d]pyrimidinyl, pyrrolo[2,3-b]pyrazinyl and pyrrolo[2,3-d]pyridinyl acrylamides” (Pfizer Inc., priority 2013, dated 2021).

For orientation: IC50 means the concentration that gives 50% inhibition.

The nature of data set [1]: Stability of JAK3 covalent inhibitors in human whole blood. It is filed as in vitro ADME. Conditions: 37° C.; for half-life at 1 μM: both sexes, read-out: Human blood stability t1/2; for Human blood stability t1/2: 1 μM.
Method: Human blood was collected from one male and one female healthy subjects at the Occupational Health & Wellness Center at Pfizer, Groton, Conn. and pooled for each study. Both rat and human blood was collected freshly into K2-EDTA tubes and kept on ice. An aliquot of the blood was transferred to microtubes and pre-warmed for 10 min at 37° C. using a heat block. […] An aliquot of the incubation mixture was removed at designated time points during the course of the incubation, mixed with an aliquot of acetonitrile containing an internal standard, vortexed and centrifuged. The resulting supernatants were removed and subjected to LC-MS/MS analyses to determine parent compound concentrations. Peak area ratios of the parent compound vs the internal standard were used to determine the % of parent compound remaining vs incubation time.
For data set [2], the system named is IL-15 induced STAT5 phosphorylation in Human Whole Blood (total lymphocytes). In words: HWB IL-15 Induced STAT5 Phosphorylation Assay. As to conditions: IL-15 stimulated, read-out: HWB-IL15-pSTAT5 IC50. It counts as cell-based.
Data set [3] concerns IL-15 induced P-STAT5 in human PBMC (total lymphocytes). The experiment in a line: PBMC IL-15 Induced P-STAT5. It counts as cell-based. Conditions: IL-15 stimulated, read-out: PBMC IL15-pSTAT5 IC50. In a few lines: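 Thawed human PBMC in RPMI, preincubated 30 min at 37 °C, then IL-15 stimulated. Cells methanol-permeabilized (90%, on ice 20 min) and stained for phospho-STAT5. Read by flow cytometry, gated on total lymphocytes.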

Another data set deals with JAK3 enzyme (Homo sapiens (Human), UniProt P52333). In words: JAK Caliper Enzyme Assay at 4 μM or 1 mM ATP. It counts as biochemical. The protocol: JAK Caliper Enzyme Assay at 4 μM or 1 mM ATP
Sequence of JAK3 enzyme (P52333 whole entry, species assumed): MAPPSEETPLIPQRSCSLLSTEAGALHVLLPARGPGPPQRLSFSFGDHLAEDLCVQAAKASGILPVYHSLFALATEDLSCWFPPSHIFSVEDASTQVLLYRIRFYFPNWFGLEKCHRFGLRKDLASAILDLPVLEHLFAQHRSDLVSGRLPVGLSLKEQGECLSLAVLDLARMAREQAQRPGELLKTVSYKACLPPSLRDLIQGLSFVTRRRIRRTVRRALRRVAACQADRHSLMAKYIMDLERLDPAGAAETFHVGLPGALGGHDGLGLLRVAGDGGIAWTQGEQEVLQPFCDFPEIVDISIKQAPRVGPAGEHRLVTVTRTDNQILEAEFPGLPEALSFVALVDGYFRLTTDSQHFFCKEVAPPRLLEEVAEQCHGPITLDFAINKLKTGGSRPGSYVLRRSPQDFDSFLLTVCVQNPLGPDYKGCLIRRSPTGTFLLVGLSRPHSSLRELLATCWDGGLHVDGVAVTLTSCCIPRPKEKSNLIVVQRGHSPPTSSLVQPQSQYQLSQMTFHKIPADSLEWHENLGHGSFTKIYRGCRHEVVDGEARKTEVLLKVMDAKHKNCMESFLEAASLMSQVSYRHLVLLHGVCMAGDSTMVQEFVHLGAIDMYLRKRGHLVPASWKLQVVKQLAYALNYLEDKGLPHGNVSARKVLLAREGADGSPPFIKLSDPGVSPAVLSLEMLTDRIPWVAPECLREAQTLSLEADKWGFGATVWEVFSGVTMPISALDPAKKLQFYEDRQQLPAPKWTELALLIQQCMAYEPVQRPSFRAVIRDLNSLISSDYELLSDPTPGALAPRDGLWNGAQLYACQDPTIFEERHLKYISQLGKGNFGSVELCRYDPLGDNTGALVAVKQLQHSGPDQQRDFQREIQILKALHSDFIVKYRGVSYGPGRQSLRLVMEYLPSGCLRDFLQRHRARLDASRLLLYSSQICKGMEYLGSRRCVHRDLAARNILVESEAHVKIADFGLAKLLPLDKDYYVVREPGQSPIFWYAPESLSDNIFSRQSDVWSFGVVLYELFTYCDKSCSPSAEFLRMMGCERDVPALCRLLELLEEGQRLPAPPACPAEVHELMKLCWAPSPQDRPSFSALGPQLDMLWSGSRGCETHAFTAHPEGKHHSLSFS
Test article was solubilized in dimethyl sulfoxide (DMSO) to a stock concentration of 30 mM. An 11-point half log dilution series was created in DMSO with a top concentration of 600 μM. […] The compound plates were diluted 1 to 60 resulting in a top final assay compound concentration of 10 μM and a 2% DMSO concentration.
Test article and assay controls were added to a 384-well plate. Reaction mixtures contained 20 mM HEPES, pH 7.4, 10 mM magnesium chloride, 0.01% bovine serum albumin (BSA), 0.0005% Tween 20, 4 μM or 1 mM ATP and 1 μM peptide substrate. […] The assays were initiated by the addition 1 nM JAK3 enzyme and were incubated at room temperature 75 minutes for JAK3. Enzyme concentrations and incubation times were optimized for each new enzyme preps and were modified slightly over time to ensure 20%-30% phosphorylation. The assays were stopped with a final concentration of 10 mM EDTA, 0.1% Coating Reagent and 100 mM HEPES, pH=7.4. The assay plates were placed on a Caliper Life Science Lab Chip 3000 (LC3000) instrument, and each well was sampled using appropriate separation conditions to measure the unphosphorylated and phosphorylated peptide.

Setting [4] is: read-out: JAK3 (1 mM ATP) IC50, 1 mM ATP.

Where two headings read alike, the source gives them in different places. Where only a bound is given, the exact number is not on record here.

On to `C=CC(=O)N1C[C@@H](Nc2ncnc3[nH]ccc23)[C@@H]2CC[C@H]1C2` (racemic) [Example 116, Rac-1-((1R,4R,5S)-4-(7H-pyrrolo[2,3-d]pyrimidin-4-ylamino)-2-azabicyclo[3.2.1]octan-2-yl)prop-2-en-1-one], for which, in data set [1], the half-life at 1 μM turned out to be 4.68 h. Further, the half-maximal inhibitory concentration (IC50) in data set [2] (Lymphocyte) is greater than 10000 nM; in data set [3] (Homo sapiens, PBMC) it was greater than 10000 nM.
`C=CC(=O)N1CC[C@H](Nc2cnc3[nH]cc(C(=O)NC(C)(C)C)c3n2)C[C@@H]1C` (racemic) [Example 340]: the half-life at 1 μM in data set [1] was greater than 6 h.
On the same count and under the same terms, the figure for `C=CC(=O)N1CC[C@@H](Nc2cnc3[nH]cc(C(=O)NC(C)(C)C)c3n2)C[C@H]1C` (single isomer, unassigned) [Example 342] is greater than 6 h.
The same measure, in the same setting: the figure for `C=CC(=O)N1CCC[C@@H](Nc2ncnc3[nH]cc(-c4ccc(C(=O)NC5CC5)c(Cl)c4)c23)C1` [Example 31, 4-(4-{[(3R)-1-acryloylpiperidin-3-yl]amino}-7H-pyrrolo[2,3-d]pyrimidin-5-yl)-2-chloro-N-cyclopropylbenzamide] is greater than 6 h.
On to `C=CC(=O)N1C[C@@H](O)C[C@@H](Nc2ncnc3[nH]cc(Cl)c23)C1` [Example 162, 1-{(3R,5S)-3-[(5-Chloro-7H-pyrrolo[2,3-d]pyrimidin-4-yl)amino]-5-hydroxypiperidin-1-yl}prop-2-en-1-one], for which the half-life at 1 μM in data set [1] is greater than 6 h. For the same compound, the 50% inhibitory concentration (IC50) in data set [2] (Lymphocyte) was 1000 nM; in data set [3] it was 361 nM.
Regarding `C=CC(=O)N1CC2CCN(c3cnc4[nH]cc(C(=O)NC(C)C)c4n3)C2C1` (stereo not shown) [Example 178, 2-(5-acryloylhexahydropyrrolo[3,4-b]pyrrol-1(2H)-yl)-N-(propan-2-yl)-5H-pyrrolo[2,3-b]pyrazine-7-carboxamide], in data set [1], the “Human blood stability t1/2” value stood at 2.38 h. Further, the 50% inhibitory concentration (IC50) was 2560 nM in data set [2] and 208 nM in data set [3].
As for `C=CC(=O)N1CCC(Oc2cnc3[nH]cc(-c4cnn(C)c4)c3n2)CC1` [Example 218, 1-(4-{[7-(1-methyl-1H-pyrazol-4-yl)-5H-pyrrolo[2,3-b]pyrazin-2-yl]oxy}piperidin-1-yl)prop-2-en-1-one], the “Human blood stability t1/2” value in data set [1] is greater than 6 h. Further, the values for the concentration for half-maximal inhibition (IC50) in data set [2] and in data set [3] were 6190 nM and 345 nM, respectively.
As for `C=CC(=O)N1CCC(Nc2cnc3[nH]cc(C(=O)N[C@@H](C)C(=O)NCCC#N)c3n2)CC1` [Example 264, 2-[(1-acryloylpiperidin-4-yl)amino]-N-{(2S)-1-[(2-cyanoethyl)aminop]-oxopropan-2-yl}-5H-pyrrolo[2,3-b]pyrazine-7-carboxamide], the 50% inhibitory concentration (IC50) on JAK3 enzyme (read-out: JAK3 (4 μM ATP) IC50, 4 μM ATP) turned out to be 2.6 nM; on JAK3 enzyme (setting [4]), 226 nM; in data set [3] it was 4480 nM.
On to `C=CC(=O)N1CCN(c2cnc3[nH]cc(C(=O)NC(C)C)c3n2)CC1(C)C` [Example 293, 2-(4-acryloyl-3,3-dimethylpiperazin-1-yl)-N-(propan-2-yl)-5H-pyrrolo[2,3-b]pyrazine-7-carboxamide], for which the 50% inhibitory concentration (IC50) in data set [2] (Lymphocyte) was 4490 nM; in data set [3] (Homo sapiens, PBMC), 300 nM.
With `C=CC(=O)N1CCN(c2cnc3[nH]cc(C(=O)NC(C)C)c3n2)C[C@@H]1C` [Example 295, 2-[(3S)-4-acryloyl-3-methylpiperazin-1-yl]-N-(propan-2-yl)-5H-pyrrolo[2,3-b]pyrazine-7-carboxamide], the half-inhibitory concentration (IC50) in data set [2] (Lymphocyte) was 2670 nM; in data set [3], 334 nM.
In the same order, the values of `C=CC(=O)N1CCN(c2cnc3[nH]cc(C(=O)NC(C)C)c3n2)C[C@@H]1CC` [Example 299, 2-[(3S)-4-acryloyl-3-ethylpiperazin-1-yl]-N-(propan-2-yl)-5H-pyrrolo[2,3-b]pyrazine-7-carboxamide] are 1380 nM and 225 nM.
Consider `C=CC(=O)N1C[C@@H]2C[C@H]1CN2c1cnc2[nH]cc(C(=O)NC(C)C)c2n1` [Example 300, 2-[(1S,4S)-5-acryloyl-2,5-diazabicyclo[2.2.1]hept-2-yl]-N-(propan-2-yl)-5H-pyrrolo[2,3-b]pyrazine-7-carboxamide], for which the IC50 in data set [2] (Lymphocyte) came to 3400 nM; in data set [3] it was 714 nM.
With `C=CC(=O)N1[C@@H]2CC[C@H]1CN(c1cnc3[nH]cc(C(=O)NC(C)C)c3n1)C2` [Example 301, 2-[(1R,5S)-8-acryloyl-3,8-diazabicyclo[3.2.1]oct-3-yl]-N-(propan-2-yl)-5H-pyrrolo[2,3-b]pyrazine-7-carboxamide], the IC50 came out at 4900 nM in data set [2] (Lymphocyte) and 408 nM in data set [3].
Turning to `C=CC(=O)N1CC[C@@H](Nc2cnc3[nH]cc(C(=O)NC(C)C)c3n2)[C@@H](OC)C1` [Example 302, 2-{[(3S,4R)-1-acryloyl-3-methoxypiperidin-4-yl]amino}-N-(propan-2-yl)-5H-pyrrolo[2,3-b]pyrazine-7-carboxamide], the 50% inhibitory concentration (IC50) in data set [2] (Lymphocyte) worked out at 1310 nM; in data set [3], 264 nM.
Turning to `C=CC(=O)N1CCN(c2cnc3[nH]cc(C(=O)NC(C)C)c3n2)C[C@@H]1CC(C)C` [Example 303, 2-[(3S)-4-acryloyl-3-(2-methylpropyl)piperazin-1-yl]-N-(propan-2-yl)-5H-pyrrolo[2,3-b]pyrazine-7-carboxamide], the 50% inhibitory concentration (IC50) worked out at 2730 nM in data set [2] (Lymphocyte) and 294 nM in data set [3] (Homo sapiens, PBMC).
For `C=CC(=O)N1CC[C@@H](Nc2cnc3[nH]cc(C(=O)NC(C)C)c3n2)[C@H](OC)C1` [Example 305, 2-{[(3R,4R)-1-acryloyl-3-methoxypiperidin-4-yl]amino}-N-(propan-2-yl)-5H-pyrrolo[2,3-b]pyrazine-7-carboxamide], the IC50 was 2640 nM in data set [2] (Lymphocyte) and 744 nM in data set [3].
With `C=CC(=O)N1CCN(c2cnc3[nH]cc(C(=O)NC(C)C)c3n2)C[C@H]1CC` [Example 311, 2-[(3R)-4-acryloyl-3-ethylpiperazin-1-yl]-N-(propan-2-yl)-5H-pyrrolo[2,3-b]pyrazine-7-carboxamide], the half-maximal inhibitory concentration (IC50) at JAK3 enzyme (setting [4]) stood at 220 nM; in data set [3] it was 696 nM.
Regarding `C=CC(=O)N1CC[C@H](Nc2cnc3[nH]cc(C(=O)NC(C)C)c3n2)[C@H](OC)C1` [Example 317, 2-{[(3R,4S)-1-acryloyl-3-methoxypiperidin-4-yl]amino}-N-(propan-2-yl)-5H-pyrrolo[2,3-b]pyrazine-7-carboxamide], the 50% inhibitory concentration (IC50) in data set [2] (Lymphocyte) turned out to be 420 nM; in data set [3], 243 nM.
Regarding `C=CC(=O)N1CCC(C)(Nc2cnc3[nH]cc(C(=O)NC(C)C)c3n2)CC1` [Example 318, 2-[(1-acryloyl-4-methylpiperidin-4-yl)amino]-N-(propan-2-yl)-5H-pyrrolo[2,3-b]pyrazine-7-carboxamide], the IC50 in data set [2] (Lymphocyte) worked out at 2080 nM; in data set [3], 260 nM.
`C=CC(=O)N1CC[C@@H](Nc2cnc3[nH]cc(C(=O)NC(C)C)c3n2)[C@@H](F)C1` [Example 320, 2-{[(3S,4R)-1-acryloyl-3-fluoropiperidin-4-yl]amino}-N-(propan-2-yl)-5H-pyrrolo[2,3-b]pyrazine-7-carboxamide]: the half-maximal inhibitory concentration (IC50) in data set [2] (Lymphocyte) came to 343 nM; in data set [3], 61.1 nM.
In the case of `C=CC(=O)N1CC(Nc2cnc3[nH]ccc3n2)C1` [Example 337, 1-(3-((5H-Pyrrolo[2,3-b]pyrazin-2-yl)amino)azetidin-1-yl)prop-2-en-1-one], the concentration for half-maximal inhibition (IC50) in data set [2] (Lymphocyte) was determined as 631 nM; in data set [3] (Homo sapiens, PBMC), 237 nM.
With `C=CC(=O)N1CCC(Oc2cnc3[nH]cc(C(=O)NC(C)C)c3n2)CC1` [Example 339, 2-((1-Acryloylpiperidin-4-yl)oxy)-N-isopropyl-5H-pyrrolo[2,3-b]pyrazine-7-carboxamide], the results for the concentration for half-maximal inhibition (IC50) in data set [2] (Lymphocyte) and in data set [3] were 502 nM and 80.6 nM, respectively.
`C=CC(=O)N1CC[C@H](Nc2cnc3[nH]cc(C(=O)NC(C)(C)C)c3n2)C[C@@H]1C` [Example 341, 2-(((2S,4S)-1-Acryloyl-2-methylpiperidin-4-yl)amino)-N-(tert-butyl)-5H-pyrrolo[2,3-b]pyrazine-7-carboxamide]: the “Human blood stability t1/2” value in data set [1] was greater than 6 h.
As for `C#CCNC(=O)c1c[nH]c2ncc(NC3CCN(C(=O)C=C)CC3)nc12` [Example 343, 2-((1-Acryloylpiperidin-4-yl)amino)-N-(prop-2-yn-1-yl)-5H-pyrrolo[2,3-b]pyrazine-7-carboxamide], the half-inhibitory concentration (IC50) in data set [2] (Lymphocyte) was 105 nM; in data set [3] it was 36.8 nM.
